Experiments:
KcsA-Kv1.3 [1] = assay: Competitive displacement of GFP-L2-AgTx2 from KcsA-Kv1.3 on spheroplasts; assay type: binding; conditions: for Displacement of GFP-L2-AgTx2 from complexes with KcsA-Kv1.3 (in words) / Concentration range of competition with GFP-L2-AgTx2 for KcsA-Kv1.3: GFP-L2-AgTx2 20 nM; for Displacement of GFP-L2-AgTx2 from complexes with KcsA-Kv1.3 (in words) / Kd: 2 h, 37 °C; for Displacement of GFP-L2-AgTx2 from complexes with KcsA-Kv1.3 (in words): Figure 2D; for Kd: fluorescent ligand GFP-L2-AgTx2 20 nM, Kap = IC50/(1 + [L]/[Kd]), mean ± SEM, n = 3, read-out: Apparent dissociation constant Kap of peptide blocker – Kv1.3-binding site complexes; for Concentration range of competition with GFP-L2-AgTx2 for KcsA-Kv1.3: titration, Figure 3E
KcsA-Kv1.3 [2] = assay: Competitive displacement of His6-GFP-L2-AgTx2 from KcsA-Kv1.3 on spheroplasts; assay type: binding; conditions: for Kd: fluorescent ligand His6-GFP-L2-AgTx2 20 nM, 2 h, 37 °C, Kap = IC50/(1 + [L]/[Kd]), mean ± SEM, n = 3, read-out: Apparent dissociation constant Kap of peptide blocker – Kv1.3-binding site complexes; for Concentration range of competition with His6-GFP-L2-AgTx2 for KcsA-Kv1.3: titration, His6-GFP-L2-AgTx2 20 nM, Figure 3F
KcsA-Kv1.1 = assay: Competitive displacement of AgTx2-L3-GFP from KcsA-Kv1.1 on spheroplasts; assay type: binding; conditions: AgTx2-L3-GFP 20 nM; Figure 4
KcsA-Kv1.3 [3] = assay: Competitive displacement of AgTx2-L3-GFP from KcsA-Kv1.3 on spheroplasts; assay type: binding; conditions: AgTx2-L3-GFP 20 nM; Figure 4
KcsA-Kv1.6 = assay: Competitive displacement of AgTx2-L3-GFP from KcsA-Kv1.6 on spheroplasts; assay type: binding; conditions: AgTx2-L3-GFP 20 nM; Figure 4
mKate2-hKv1.3-del [4] = assay: Competitive displacement of GFP-L2-AgTx2 from mKate2-hKv1.3-del on HEK293 cells; assay type: cell-based, human; conditions: GFP-L2-AgTx2 40 nM, AgTx2 400 nM, 40 min
Source text: KCNA3 gene encoding human Kv1.3 (hKv1.3, Accession number NP_002223.3) was a generous gift from Dr. A. Vassilevski. The gene was amplified using primers KCNA3-del-f1 and KCNA3-r1 (Table 2) to obtain KCNA3-del gene encoding N-terminally truncated protein, in which residues M1 through D52 were deleted. The truncated gene was inserted into BglII/HindIII sites of pmKate2-C plasmid (Evrogen, Moscow, Russia) to obtain the resulting plasmid pmKate2-KCNA3-del, which was further used for transfection of HEK293T cells. In the hybrid protein, mKate2-hKv1.3-del, mKate2 was linked to the N-terminus of the hKv1.3-del channel through the 9-aa flexible linker. […]
HEK 293 cells (from the collection of the Institute of Cytology RAS) were grown (37 °C, 5% CO2) in DMEM/F12 (Paneco, Russia) containing 5% fetal bovine serum (FBS, HyClone, Utah, USA) and 2 mM L-glutamine. […] Competitive binding was assessed by incubating cells with GFP-L2-AgTx2 (40 nM) and AgTx2 (400 nM) for 40 min. […]
Experiments with HEK293 cells were performed with a laser scanning confocal microscope Leica-SP2 (Leica Microsystems GmbH, Wetzlar, Germany). […] Fluorescence of GFP-tagged AgTx2 was excited at the 488 nm wavelength and recorded in the 495–535 nm range. Fluorescence of mKate2-hKv1.3 was excited at the 561 nm wavelength and recorded in the 650–700 nm range.

Kv1.1 = conditions: cited from earlier work
Source text: (§1) AgTx2 was successfully used in the form of a fluorescently labeled peptide (either RFP-AgTx2, or AgTx2 chemically labeled with tetramethylrhodamine, R-AgTx2) to probe binding affinities of various peptide toxins to different Kv1 channels. Extending color variety of AgTx2-based FP-Tx, we report here on the design of GFP-tagged AgTx2. Ability of GFP-tagged AgTx2 to interact with the pore blocker bi ... || To clarify the structural basis of the advanced selectivity of GFP-L2-AgTx2, a homologous GFP-L1-AgTx2 ligand was produced, in which the 45-aminoacid L1 linker was used instead of the L2 linker (Figure 1A). […] Fusion of AgTx2 with GFP was performed using the 20-aa glycine-rich L3 linker, whose sequence was similar to the L2 linker.

Kv1.6 = conditions: cited from earlier work
Source text: as §1

Kv1.3 = conditions: cited from earlier work
Source text: AgTx2 was successfully used in the form of a fluorescently labeled peptide (either RFP-AgTx2, or AgTx2 chemically labeled with tetramethylrhodamine, R-AgTx2) to probe binding affinities of various peptide toxins to different Kv1 channels. Extending color variety of AgTx2-based FP-Tx, we report here on the design of GFP-tagged AgTx2. Ability of GFP-tagged AgTx2 to interact with the pore blocker bi ... || To verify specificity of GFP-L2-AgTx2 interaction with the Kv1.3 binding site on the surface of KcsA-Kv1.3-presenting spheroplasts, we have studied the effect of well-known potassium channel peptide blockers on this interaction (Figure 2D). […] Scillato ... || To clarify the structural basis of the advanced selectivity of GFP-L2-AgTx2, a homologous GFP-L1-AgTx2 ligand was produced, in which the 45-aminoacid L1 linker was used instead of the L2 linker (Figure 1A).

Kv1.2 = conditions: cited from earlier work
Source text: Several fluorescently labeled peptide toxins were produced by chemical synthesis using reactive fluorescent organic dyes. The procedures are usually laborious, and the yields of the labeled products are often low. As an alternative, genetically encoded fluorescent protein-scorpion toxin chimeras (FP-Tx), which are the polypeptide ligands of potassium voltage-gated Kv1-channels were recently developed. […] AgTx2 was successfully used in the form of a fluorescently labeled peptide (either RFP-AgTx2, or AgTx2 chemically labeled with tetramethylrhodamine, R-AgTx2) to probe binding affinities of various peptide toxins to different Kv1 channels. Extending color variety of AgTx2-based FP-Tx, we report here on the design of GFP-tagged AgTx2. Ability of GFP-tagged AgTx2 to interact with the pore blocker bi ...

KCa2.3 = conditions: known pharmacology, no reference given; cited from earlier work
mKate2-hKv1.3-del [5] = conditions: transient expression; cited from earlier work
Source text: In the following experiments we have verified, if AgTx2-L2-GFP, His6-AgTx2-L2-GFP and GFP-L1-AgTx2 can be used as fluorescent probes of Kv1.3 channels on the membrane of eukaryotic cells. Recently, we have designed a plasmid that encoded the fluorescently labeled human Kv1.3 channel (mKate2-hKv1.3-del) with enhanced presentation on the membrane of eukaryotic cells. […] Previously, the ...

| Molecule | Displacement of GFP-L2-AgTx2 from complexes with KcsA-Kv1.3 (in words) (KcsA-Kv1.3 [1]) | Kd (KcsA-Kv1.3 [1]) [nM] | Concentration range of competition with GFP-L2-AgTx2 for KcsA-Kv1.3 (KcsA-Kv1.3 [1]) | Kd (KcsA-Kv1.3 [2]) [nM] | Concentration range of competition with His6-GFP-L2-AgTx2 for KcsA-Kv1.3 (KcsA-Kv1.3 [2]) | Displacement of AgTx2-L3-GFP from complexes with KcsA-Kv1.1 (in words) (KcsA-Kv1.1) | Displacement of AgTx2-L3-GFP from complexes with KcsA-Kv1.3 (in words) (KcsA-Kv1.3 [3]) | Displacement of AgTx2-L3-GFP from complexes with KcsA-Kv1.6 (in words) (KcsA-Kv1.6) | Displacement of GFP-L2-AgTx2 from mKate2-hKv1.3-del at the cell membrane (in words) (mKate2-hKv1.3-del [4]) | Affinity to Kv1.1 (in words) (Kv1.1) | Affinity to Kv1.6 (in words) (Kv1.6) | Affinity to Kv1.3 (in words) (Kv1.3) | Selectivity for Kv1.3 over Kv1.1 and Kv1.6 channels (Kv1.3) | Affinity to Kv1.2 (in words) (Kv1.2) | Interaction with Kv1.3 channel (in words) (Kv1.3; known pharmacology, no reference given) | Pore block of KCa2.3 channel (in words) (KCa2.3) | Affinity to Kv1.3 channels (in words) (Kv1.3) | Binding to mKate2-hKv1.3-del in eukaryotic cells (in words) (mKate2-hKv1.3-del [5]) |
| --- | --- | --- | --- | --- | --- | --- | --- | --- | --- | --- | --- | --- | --- | --- | --- | --- | --- | --- |
| CC[C@H](C)[C@@H]1NC(=O)[C@@H]2CSSC[C@@H]3NC(=O)[C@H](CCCCN)NC(=O)[C@H](CCCNC(=N)N)NC(=O)[C@H](CC(N)=O)NC(=O)[C@H](CCSC)NC(=O)[C@H](CSSC[C@H](NC(=O)[C@H](CO)NC(=O)[C@@H](NC(=O)[C@H](CC(N)=O)NC(=O)[C@@H](NC(=O)[C@@H]4CCCN4C(=O)[C@@H](NC(=O)CN)C(C)C)[C@@H](C)CC)C(C)C)C(=O)N[C@@H]([C@@H](C)O)C(=O)NCC(=O)N[C@@H](CO)C(=O)N4CCC[C@H]4C(=O)N[C@@H](CCC(N)=O)C(=O)N2)NC(=O)[C@H](CCCCN)NC(=O)CNC(=O)[C@H](Cc2ccccc2)NC(=O)[C@H](CCCNC(=N)N)NC(=O)[C@H](CCSC)NC(=O)CNC(=O)[C@H](C)NC(=O)[C@H](CC(=O)O)NC(=O)[C@H](CCCCN)NC(=O)[C@H](CSSC[C@@H](C(=O)N[C@H](C(=O)N2CCC[C@H]2C(=O)N[C@@H](CCCCN)C(=O)O)[C@@H](C)O)NC(=O)[C@H](Cc2c[nH]cn2)NC3=O)NC(=O)[C@@H]2CCCN2C(=O)[C@H](CCCCN)NC1=O [AgTx2, agitoxin 2] | low nanomolar | 0.23 ± 0.05 | nanomolar concentration range | 0.07 ± 0.004 | nanomolar concentration range | readily displaced | readily displaced | readily displaced | displaced totally | sub-nanomolar affinity | sub-nanomolar affinity | sub-nanomolar affinity | ca. tenfold | nanomolar affinity |  |  |  |  |
| Scillatoxin [ScTx] | did not affect GFP-L2-AgTx2 binding to KcsA-Kv1.3 |  |  |  |  | did not compete | did not compete | did not compete |  |  |  |  |  |  | no ability to interact with Kv1.3 channel | pore blocker of KCa2.3 channel |  |  |
| CC[C@H](C)[C@H](NC(=O)[C@H](CCC(=O)O)NC(=O)[C@@H](NC(=O)CN)C(C)C)C(=O)N[C@@H](CC(N)=O)C(=O)N[C@H](C(=O)N[C@@H](CCCCN)C(=O)N[C@H]1CSSC[C@@H]2NC(=O)[C@H](CCCCN)NC(=O)CNC(=O)[C@H](Cc3ccccc3)NC(=O)[C@H](CCCNC(=N)N)NC(=O)[C@H](CCSC)NC(=O)CNC(=O)[C@H](C)NC(=O)[C@H](CC(=O)O)NC(=O)[C@H](CCCCN)NC(=O)[C@@H]3CSSC[C@@H](C(=O)N[C@H](C(=O)N4CCC[C@H]4C(=O)N[C@@H](CCCCN)C(=O)O)[C@@H](C)O)NC(=O)[C@H](Cc4c[nH]cn4)NC(=O)[C@H](CSSC[C@H](NC(=O)[C@H](CCC(N)=O)NC(=O)[C@@H]4CCCN4C(=O)[C@H](CO)NC(=O)CNC(=O)[C@H](CO)NC1=O)C(=O)N[C@@H](CC(C)C)C(=O)N[C@@H](CCCCN)C(=O)N1CCC[C@H]1C(=O)N3)NC(=O)[C@H](CCCCN)NC(=O)[C@H](CCCNC(=N)N)NC(=O)[C@H](CC(N)=O)NC(=O)[C@H](CCSC)NC2=O)C(C)C [KTx1, kaliotoxin 1] | low nanomolar | 0.1 ± 0.04 | nanomolar concentration range | 0.071 ± 0.007 | nanomolar concentration range | readily displaced | readily displaced | readily displaced |  |  |  |  |  |  |  |  |  |  |
| Hetlaxin [HeTx] | low micromolar concentrations | 39 | higher concentrations | 45 | higher concentrations |  |  |  |  |  |  |  |  |  |  |  | moderate-affinity ligand |  |
| hongotoxin 1 |  |  |  |  |  |  |  |  |  |  |  |  |  |  |  |  |  | bind specifically |

From article PMC7766132, “N-Terminal Tagging with GFP Enhances Selectivity of Agitoxin 2 to Kv1.3-Channel Binding Site” (Toxins, 2020)
